Earlier results as cited in US20140228389A1, “DRY POWDER COMPOUND FORMULATIONS AND USES THEREOF” (Wyeth, LLC, priority 2006, published 2014).

How the values were obtained:
[1] = system: opioid receptors; settings: found in U.S. Ser. No. 11/441,395 and 11/441,452
[2] = white crystalline powder from Mallinckrodt Pharmaceuticals

Compound | opioid activity (agonist or antagonist) [1] | solubility in water [2]
C[N+]1(CC2CC2)CC[C@]23c4c5ccc(O)c4O[C@H]2C(=O)CC[C@@]3(O)[C@H]1C5.[Br-] (stereo partly drawn) [S—N isomer of methylnaltrexone, S-Methylnaltrexone bromide] | opioid agonist | –
C[N+]1(CC2CC2)CC[C@]23c4c5ccc(O)c4O[C@H]2C(=O)CC[C@@]3(O)[C@H]1C5.[Br-] (stereo partly drawn) [Methylnaltrexone, Methylnaltrexone bromide] | – | freely soluble in water
C[N+]1(CC2CC2)CCC23c4c5ccc(O)c4OC2C(=O)CCC3(O)C1C5 (single isomer, unassigned) [R—N isomer of methylnaltrexone] | opioid antagonist | –
